Literature values in patent publication US20090306944A1, “DEVICE AND METHOD FOR CALCULATING AND SUPPLYING A DRUG DOSE” (BAYER TECHNOLOGY SERVICES GMBH, priority 2006, published 2009).
Where two headings read alike, the source gives them in different places.

Assays:
[1] = biological target: T1, CYP1A2 (Homo sapiens, UniProt P05177); details: proportion of overall clearance, reference value in an adult
T1 sequence (P05177 1-516): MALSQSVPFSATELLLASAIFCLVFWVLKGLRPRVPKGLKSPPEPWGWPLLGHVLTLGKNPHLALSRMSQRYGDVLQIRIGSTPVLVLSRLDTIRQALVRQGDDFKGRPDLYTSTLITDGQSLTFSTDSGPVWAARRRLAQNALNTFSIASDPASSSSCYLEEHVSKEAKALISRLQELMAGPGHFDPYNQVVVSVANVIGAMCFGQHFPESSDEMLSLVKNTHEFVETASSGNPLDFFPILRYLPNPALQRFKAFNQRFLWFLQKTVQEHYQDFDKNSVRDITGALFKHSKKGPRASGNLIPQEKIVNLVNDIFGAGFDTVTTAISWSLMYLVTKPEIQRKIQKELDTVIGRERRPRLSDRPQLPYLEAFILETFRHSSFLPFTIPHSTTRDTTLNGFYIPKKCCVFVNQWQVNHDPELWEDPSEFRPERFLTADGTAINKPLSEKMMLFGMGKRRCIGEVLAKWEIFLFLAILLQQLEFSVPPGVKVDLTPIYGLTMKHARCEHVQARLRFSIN

[2] = biological target: CYP2E1 (Homo sapiens, UniProt P05181); details: proportion of overall clearance, reference value in an adult
[3] = for main binding protein in the plasma: adult
[4] = intravenously administered
[5] = proportion of overall clearance, reference value in an adult
[6] = biological target: UGT1A1 (Homo sapiens, UniProt P22309); details: proportion of overall clearance, reference value in an adult
[7] = biological target: T2, UGT2B7 (Homo sapiens, UniProt P16662); details: proportion of overall clearance, reference value in an adult
T2 sequence (P16662 24-529): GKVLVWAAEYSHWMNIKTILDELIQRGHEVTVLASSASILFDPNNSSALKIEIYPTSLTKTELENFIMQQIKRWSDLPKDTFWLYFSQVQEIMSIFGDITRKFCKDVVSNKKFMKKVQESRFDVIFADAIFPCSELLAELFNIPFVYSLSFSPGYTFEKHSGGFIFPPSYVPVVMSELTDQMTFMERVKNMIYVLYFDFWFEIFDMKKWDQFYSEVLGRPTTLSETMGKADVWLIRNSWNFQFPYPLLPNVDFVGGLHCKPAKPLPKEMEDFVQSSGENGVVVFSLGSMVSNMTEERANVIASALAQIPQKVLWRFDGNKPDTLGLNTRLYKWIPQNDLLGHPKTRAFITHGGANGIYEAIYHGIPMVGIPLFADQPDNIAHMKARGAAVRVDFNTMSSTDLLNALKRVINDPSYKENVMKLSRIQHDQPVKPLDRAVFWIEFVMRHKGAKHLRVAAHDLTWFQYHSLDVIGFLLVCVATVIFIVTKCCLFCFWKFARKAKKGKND

[8] = system: CYP3A; details: in vivo
[9] = biological target: T3, CYP3A4 (Homo sapiens, UniProt P08684); details: proportion of overall clearance, reference value in an adult
T3 construct: the metabolizing enzymes in the liver; host or cells: liver enzymes of the adult, in vivo clearance

[10] = Measured
[11] = proportion of overall clearance, reference value in an adult
[12] = with co-medication with cyclosporin

Sequence of CYP2E1 (P05181 whole entry): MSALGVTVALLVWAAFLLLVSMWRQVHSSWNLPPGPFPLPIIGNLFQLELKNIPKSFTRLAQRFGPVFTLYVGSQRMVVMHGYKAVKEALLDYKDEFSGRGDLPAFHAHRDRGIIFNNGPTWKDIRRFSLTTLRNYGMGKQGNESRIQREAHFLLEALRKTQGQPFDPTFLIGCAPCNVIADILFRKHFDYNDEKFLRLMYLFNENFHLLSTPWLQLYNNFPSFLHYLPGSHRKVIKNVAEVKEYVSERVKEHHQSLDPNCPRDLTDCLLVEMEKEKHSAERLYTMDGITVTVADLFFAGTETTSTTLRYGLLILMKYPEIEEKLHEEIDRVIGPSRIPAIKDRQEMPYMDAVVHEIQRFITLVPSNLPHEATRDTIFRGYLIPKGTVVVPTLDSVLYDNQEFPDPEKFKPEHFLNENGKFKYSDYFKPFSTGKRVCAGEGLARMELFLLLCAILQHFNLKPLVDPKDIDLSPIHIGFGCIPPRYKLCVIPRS
T3 sequence (P08684 whole entry): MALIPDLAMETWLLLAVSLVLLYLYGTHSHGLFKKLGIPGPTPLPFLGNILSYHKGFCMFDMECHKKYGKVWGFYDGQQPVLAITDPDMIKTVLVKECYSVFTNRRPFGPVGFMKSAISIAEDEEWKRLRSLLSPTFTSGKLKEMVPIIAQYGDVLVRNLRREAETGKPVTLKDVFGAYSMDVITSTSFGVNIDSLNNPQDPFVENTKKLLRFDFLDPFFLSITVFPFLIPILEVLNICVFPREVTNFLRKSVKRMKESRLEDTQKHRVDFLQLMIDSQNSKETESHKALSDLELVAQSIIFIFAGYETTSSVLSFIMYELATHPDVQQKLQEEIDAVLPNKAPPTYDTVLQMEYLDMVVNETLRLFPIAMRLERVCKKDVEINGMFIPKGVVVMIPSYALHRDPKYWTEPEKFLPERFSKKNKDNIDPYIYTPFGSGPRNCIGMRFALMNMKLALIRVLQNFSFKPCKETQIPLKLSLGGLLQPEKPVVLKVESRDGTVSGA
Sequence of UGT1A1 (P22309 26-533): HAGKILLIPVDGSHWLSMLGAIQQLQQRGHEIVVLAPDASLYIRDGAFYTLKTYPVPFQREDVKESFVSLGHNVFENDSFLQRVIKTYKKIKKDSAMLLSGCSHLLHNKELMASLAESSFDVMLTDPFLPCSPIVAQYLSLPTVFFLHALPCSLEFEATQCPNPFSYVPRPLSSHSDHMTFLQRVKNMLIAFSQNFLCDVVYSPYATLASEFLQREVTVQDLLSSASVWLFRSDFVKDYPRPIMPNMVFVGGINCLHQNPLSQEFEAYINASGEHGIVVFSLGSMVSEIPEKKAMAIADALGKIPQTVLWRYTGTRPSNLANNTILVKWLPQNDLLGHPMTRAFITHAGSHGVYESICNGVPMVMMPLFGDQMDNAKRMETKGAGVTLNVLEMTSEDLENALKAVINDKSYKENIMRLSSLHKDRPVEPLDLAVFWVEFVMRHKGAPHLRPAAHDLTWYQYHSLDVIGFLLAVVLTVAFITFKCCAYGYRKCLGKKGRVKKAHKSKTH

Cn1c(=O)c2c(ncn2C)n(C)c1=O [Caffeine]
Excretion process: CYP1A2 [1]: CYP1A2 (85%),
Excretion process: CYP2E1 [2]: CPY2E1 (13%),
Free fraction in the plasma ([3]; reference value in an adult): 70% (albumin)

O=C(O)c1cn(C2CC2)c2cc(N3CCNCC3)c(F)cc2c1=O [Ciprofloxacin]
fraction renally excreted without being changed [4]: Approximately ⅔

CN[C@@H]1[C@@H](O)[C@@H](O[C@@H]2[C@@H](O)[C@H](O[C@H]3O[C@H](CN)[C@@H](O)[C@H](O)[C@H]3O)[C@@H](N)C[C@H]2NC(=O)[C@@H](O)CN)OC[C@]1(C)O [Isepamicin]
Excretion process: Renal [11]: Renal (100%)
Free fraction in the plasma ([3]; reference value in an adult): 95%

C[C@H]1COc2c(N3CCN(C)CC3)c(F)cc3c(=O)c(C(=O)O)cn1c23 [Levofloxacin]
Excretion process: Renal (in vivo): Renal (80%)
Excretion process: Billiary [5]: Billiary (10%)
Excretion process: UGT1A1 [6]: UGT1A1 (10%)
Free fraction in the plasma ([3]; reference value in an adult): 70% (Albumin)

O=C1Nc2ccc(Cl)cc2C(c2ccccc2Cl)=NC1O (stereo not drawn) [Lorazepam]
Excretion process: UGT2B7 [7]: UGT2B7 (100%)
Free fraction in the plasma ([3]; plasma): 8% (Albumin)

Cc1ncc2n1-c1ccc(Cl)cc1C(c1ccccc1F)=NC2 [Midazolam]
Excretion process: CYP3A [8]: CYP3A (100%)
Free fraction in the plasma ([3]; plasma): 2% (Albumin)

CC(=O)Nc1ccc(O)cc1 [Paracetamol]
main binding protein in the plasma [3]: Albumin
Free fraction in the plasma ([3]; reference value in an adult): 95%

CCCN1CCCC[C@H]1C(=O)Nc1c(C)cccc1C [Ropivacaine]
Excretion process: CYP1A2 [1]: CYP1A2 (90%),
Excretion process: CYP3A4 [9]: CYP3A4 (9%),
Excretion process: Renal [11]: Renal (1%)
main binding protein in the plasma [3]: α1-Glycoprotein
Free fraction in the plasma ([3]; reference value in an adult): 5%

Cn1c(=O)c2[nH]cnc2n(C)c1=O [Theophylline]
Excretion process: CYP1A2 [1]: CYP1A2 (60%),
Excretion process: Renal [11]: Renal (15%)
Excretion process: CYP2E1 [2]: CYP2E1 (25%),

CC(=O)O[C@H]1C(=O)[C@@]2(C)[C@H]([C@H](OC(=O)c3ccccc3)[C@]3(O)C[C@H](OC(=O)[C@H](O)[C@@H](NC(=O)c4ccccc4)c4ccccc4)C(C)=C1C3(C)C)[C@]1(OC(C)=O)CO[C@@H]1C[C@@H]2O [paclitaxel, Paclitaxel]
AUC [10, 12]: 1.7 ± 0.9 µM·h
Cmax [10, 12]: 200 ± 100 nM
T > 0.1 μM [10, 12]: 3.7 ± 2.3 h
T > 0.5 μM [10, 12]: 7.4 ± 4.4 h
AUC ([10]; without co-medication): 0.2 ± 0.1 µM·h
T > 0.1 μM ([10]; without co-medication): 0 h
T > 0.5 μM ([10]; without co-medication): 1.2 ± 0.9 h
Cmax ([10]; without co-medication, rounded-up value): 100 nM

Gentamicin
Free fraction in the plasma ([3]; plasma): 95%
